{
  "source": "paper PMC8482806",
  "about": "“A Novel Blood-Brain Barrier-Permeable Chemotherapeutic Agent for the Treatment of Glioblastoma” (Cureus, 2021)",
  "key": {"[1]": {"test_system": "LLC-PK1 inducible LAT1-expressing cell line", "experiment": "Modified clonogenic cell viability assay (CellTiter-Glo), LLC-PK1 inducible LAT1-expressing cells", "assay_type": "cell-based", "details": "for EC50: Sus scrofa, read-out: EC50, suppression of viability", "description": "(§1) In vitro activity of QBS10072S was assessed using a modified clonogenic cell viability assay in 96-well clear-bottom plates. For the LLC-PK1 inducible LAT1-expressing cell line, 1000 cells/well were plated and cells were treated with either butyrate alone (non-induced) or with both butyrate and doxycycline (induced) as described above. For GBM cell lines, 2000 cells/well were plated. On day 2 (GBM) or day 3 (LLC-PK1) after original plating, cells were washed twice with PBS and incubated with 50 μL of various concentrations of QBS10072S in PBS in at least quadruplicate. After 30 minutes at 37°C, 200 μL of growth medium was added to each well. Clonal populations were allowed to grow until the control wells (mock treatment) were near confluence (7 to 10 days). At this point, 170 μL media were removed and 60 μL CellTiter-Glo® (Promega, Madison, WI) were added to each well. Plates were placed on an orbital shaker for three minutes to lyse the cells and then incubated for an additional 10 minutes at RT to stabilize the luminescent signal. Luminescence was recorded using an EnSpire® Multimode Plate Reader (Perkin Elmer). Background (luminescence from wells incubated with 100 μM melphalan or lomustine) was subtracted and data were normalized to the control. EC50s were determined by non-linear regression using GraphPad Prism."}, "GBM cell lines": {"test_system": "GBM cell lines", "experiment": "Cell viability assay (CellTiter-Glo), multiple GBM cell lines", "assay_type": "cell-based", "details": "Homo sapiens; range over cell lines; read-out: EC50s, viability loss in multiple GBM cell lines", "description": "as §1"}, "LN229 cells": {"test_system": "LN229 cells", "experiment": "Cell viability assay (CellTiter-Glo), LN229", "assay_type": "cell-based", "details": "Homo sapiens, LN-229; Cell Line: LN229; read-out: LC50 (μM ± SD)", "description": "as §1"}, "42MGBA cells": {"test_system": "42MGBA cells", "experiment": "Cell viability assay (CellTiter-Glo), 42MGBA", "assay_type": "cell-based", "details": "Homo sapiens; Cell Line: 42M6BA; read-out: LC50 (μM ± SD)", "description": "as §1"}, "8MGBA cells": {"test_system": "8MGBA cells", "experiment": "Cell viability assay (CellTiter-Glo), 8MGBA", "assay_type": "cell-based", "details": "Homo sapiens, 8-MG-BA; Cell Line: 8MGBA; read-out: LC50 (μM ± SD)", "description": "as §1"}, "DBTRG cells": {"test_system": "DBTRG cells", "experiment": "Cell viability assay (CellTiter-Glo), DBTRG", "assay_type": "cell-based", "details": "Homo sapiens; Cell Line: DBTRG; read-out: LC50 (μM ± SD)", "description": "as §1"}, "AM38 cells": {"test_system": "AM38 cells", "experiment": "Cell viability assay (CellTiter-Glo), AM38", "assay_type": "cell-based", "details": "Homo sapiens, AM-38; Cell Line: AM38; read-out: LC50 (μM ± SD)", "description": "as §1"}, "[2]": {"experiment": "Cytotoxicity in normal human astrocytes (CellTiter-Glo)", "assay_type": "cell-based", "details": "normal human astrocytes (NHA), read-out: LC50", "procedure": "In vitro activity of QBS10072S was assessed using a modified clonogenic cell viability assay in 96-well clear-bottom plates. […] For GBM cell lines, 2000 cells/well were plated. On day 2 (GBM) or day 3 (LLC-PK1) after original plating, cells were washed twice with PBS and incubated with 50 μL of various concentrations of QBS10072S in PBS in at least quadruplicate. After 30 minutes at 37°C, 200 μL of growth medium was added to each well. Clonal populations were allowed to grow until the control wells (mock treatment) were near confluence (7 to 10 days). At this point, 170 μL media were removed and 60 μL CellTiter-Glo® (Promega, Madison, WI) were added to each well. Plates were placed on an orbital shaker for three minutes to lyse the cells and then incubated for an additional 10 minutes at RT to stabilize the luminescent signal. Luminescence was recorded using an EnSpire® Multimode Plate Reader (Perkin Elmer). Background (luminescence from wells incubated with 100 μM melphalan or lomustine) was subtracted and data were normalized to the control. EC50s were determined by non-linear regression using GraphPad Prism.\nCells were incubated with a titration of QBS10072S or melphalan and cell viability was measured by CellTiter-Glo. LC50 values for each compound were determined."}, "[3]": {"test_system": "phosphorylation of H2AX in U251 cells", "experiment": "Phosphorylation of γ-H2AX assay (immunoblot), U251", "assay_type": "cell-based, human", "details": "U251, 16 hours", "description": "(§2) U251 or normal human astrocyte cells were plated in six-well plates and incubated with various concentrations of QBS10072S for 16 hours. Proteins were extracted from cells using cell lysis buffer (Cell Signaling Technologies, Danvers, MA) supplemented with proteinase and a phosSTOP phosphatase inhibitor cocktail (Sigma-Aldrich, St. Louis, MO). Proteins were separated by SDS-PAGE and transferred onto polyvinylidene difluoride membranes, which were then probed with primary antibodies followed by horseradish peroxidase-conjugated secondary antibody, and visualized by ECL (Thermo-Fischer, S. San Francisco, CA). Antibodies specific for γH2AX (#2577), LAT1 (#5347), and beta-actin (#4970) were obtained from Cell Signaling Technologies."}, "[4]": {"test_system": "phosphorylation of H2AX in LN229 cells", "experiment": "Phosphorylation of γ-H2AX assay (immunoblot), LN229", "assay_type": "cell-based, human", "details": "LN229, 16 hours"}, "[5]": {"test_system": "phosphorylation of H2AX in normal human astrocytes", "experiment": "Phosphorylation of γ-H2AX assay (immunoblot), normal human astrocytes", "assay_type": "cell-based", "details": "NHAs, basal LAT1 undetectable, 16 hours", "description": "as §2"}, "[6]": {"experiment": "Tolerability in non-tumor-bearing nude mice", "assay_type": "in vivo, mouse", "details": "5 or 10 mg/kg IV once a week for four weeks", "description": "The tumor-suppressive activity of QBS10072S was evaluated in two orthotopic murine models of GBM using luciferase-expressing U251 and LN229 cell lines. Tumor volume was monitored by BLI measurement. The tolerability of QBS10072S was first tested by dosing 5 or 10 mg/kg IV once a week for four weeks into non-tumor-bearing nude mice (Figure 6). The body weights and white blood cell counts were not affected by this treatment, so QBS10072S was tested at various doses up to 10 mg/kg in the GBM models.\nFigure 6 Tolerability of QBS10072S in nude mice Non-tumor-bearing nude mice were dosed IV with vehicle or QBS10072S (5 or 10 mg/kg) once a week for four weeks (arrows). Body weights were measured every three days and complete blood counts were determined once a week for seven weeks. A: Percent change in body weight over the course of the study, normalized to pre-dose weight. B: White blood cell (WBC) counts for each study arm. Horizontal bars represent the normal range of WBCs in these mice."}, "[7]": {"experiment": "Maximum tolerated dose in Sprague-Dawley rats", "assay_type": "in vivo, rat", "details": "highest dose 10 mg/kg IV on day zero", "description": "Figure 7 Maximum tolerated dose in rats Sprague-Dawley rats (4 per arm) were dosed IV on day zero with vehicle or 2.5, 5, or 10 mg/kg of QBS10072S. Animals were monitored for two weeks for body weight changes (A), survival (B), and complete blood counts, including white blood cells (C), neutrophils (D), lymphocytes (E), red blood cells (F), platelets (G), and reticulocytes (H). Cell count results are expressed as cell count per μl. The normal cell count range for each type of cell is between the “max” and “min” lines, and the average value is indicated with a dotted line. Based on allometric scaling, 2.5, 5, and 10 mg/kg in rats is equivalent to 5, 10, and 20 mg/kg."}, "[8]": {"test_system": "breast cancer metastatic tumors", "parameters": "method as in PMID 34635566", "details": "leptomeningeal metastatic disease model, BBB never disrupted; cited from earlier work"}},
  "note": "Read-outs that look alike come from different tables or passages of the source.",
  "data": [
    {"smiles": "Cc1ccc(N(CCCl)CCCl)cc1C[C@H](N)CC(=O)O", "note": "[QBS10072S, (+)-(3S)-amino-4-[5-[bis(2-chloroethyl)amino]-2-methyl-phenyl]butanoic acid]", "values": [
      {"measurement": "EC50", "setting": "[1]; LLC-PK1, induced, high LAT1 expressing cells", "result": 1, "unit": "µM"},
      {"measurement": "EC50", "setting": "[1]; LLC-PK1, non-induced cells, low endogenous LAT1", "result": 5.5, "unit": "µM"},
      {"measurement": "potency induced vs. non-induced cells", "setting": "[1]; high LAT1 vs. non-induced", "result": 5.5, "unit": "times"},
      {"measurement": "EC50", "setting": "GBM cell lines", "result": "12 to 40", "unit": "µM"},
      {"measurement": "CC50", "setting": "LN229 cells", "result": "16 ± 2", "unit": "µM"},
      {"measurement": "CC50", "setting": "42MGBA cells", "result": "40 ± 10", "unit": "µM"},
      {"measurement": "CC50", "setting": "8MGBA cells", "result": "34 ± 20", "unit": "µM"},
      {"measurement": "CC50", "setting": "DBTRG cells", "result": "5 ± 2", "unit": "µM"},
      {"measurement": "CC50", "setting": "AM38 cells", "result": "14 ± 4", "unit": "µM"},
      {"measurement": "CC50 at 30 min", "setting": "[2]", "result": "> 10", "unit": "µM"},
      {"measurement": "phosphorylation of H2AX", "setting": "[3]", "result": "dose-dependent phosphorylation of H2AX"},
      {"measurement": "phosphorylation of H2AX", "setting": "[4]", "result": "dose-dependent phosphorylation of H2AX"},
      {"measurement": "DDR pathway activation (phospho-H2AX)", "setting": "[5]", "result": "significantly lower DDR pathway activation"},
      {"measurement": "body weights", "setting": "[6]", "result": "not affected"},
      {"measurement": "white blood cell counts", "setting": "[6]", "result": "not affected"},
      {"measurement": "maximum tolerated dose", "setting": "[7]", "result": "the highest dose was greater than the maximum tolerated dose"},
      {"measurement": "inhibition of tumor growth with intact BBB", "setting": "[8]", "result": "still effective for inhibiting tumor growth"}
    ]}
  ]
}
